Laboratory results from patent publication US9540333B2, “Alkyl amide-substituted pyrimidine compounds useful in the modulation of IL-12, IL-23 and/or IFNα” (Bristol-Myers Squibb Company, priority 2012, dated 2017).

Legend:
[1] = system: IL-23 stimulated Kit225 T cells with STAT-dependent luciferase reporter; assay: Kit225 T cell assay, IL-23 stimulated STAT-dependent luciferase reporter; type: cell-based; settings: 20 ng/mL human recombinant IL-23, 5-6 hours, read-out: IL-23 Kit225 Reporter, LE (IC50)
Procedure: (§1) Kit225 T cells with a stably-integrated STAT-dependent luciferase reporter were plated in RPMI (Gibco) containing 10% heat-inactivated FBS (Gibco) and 100 U/mL PenStrep (Gibco). The cells were then stimulated with either 20 ng/mL human recombinant IL-23 or 200 U/mL human recombinant IFNα (PBL InterferonSource) for 5-6 hours. Luciferase expression was measured using the STEADY-GLO® Luciferase Assay System (Promega) according to the manufacturer's instructions. Inhibition data were calculated by comparison to no inhibitor control wells for 0% inhibition and non-stimulated control wells for 100% inhibition. Dose response curves were generated to determine the concentration required to inhibit 50% of cellular response (IC50) as derived by non-linear regression analysis.

[2] = biological target: T1, His-tagged protein corresponding to amino acids 575-869 of human Tyk2 (Homo sapiens, UniProt P29597); assay: Probe displacement assay (scintillation proximity, radiolabeled probe); type: binding; settings: 2.5 nM Tyk2 (575-869), 40 nM tritiated probe, 30 minutes at room temperature
T1 construct: His-tagged protein corresponding to amino acids 575-869 of human Tyk2; made in house
Procedure: The probe displacement assay is conducted as follows: In a […], test compounds along with recombinantly expressed His-tagged protein corresponding to amino acids 575-869 of human Tyk2 (sequence shown below) at 2.5 nM, 40 nM ((R)—N-(1-(3-(8-methyl-5-(methylamino)-8H-imidazo[4,5-d]thiazolo[5,4-b]pyridin-2-yl)phenyl)ethyl)-2-([^3H]methylsulfonyl)benzamide) (preparation described below) and 80 μg/mL Copper His-Tag scintillation proximity assay beads (Perkin Elmer, Catalog #RPNQ0095) in 50 mM HEPES, pH 7.5, containing 100 μg/mL bovine serum albumin and 5% DMSO were incubated for 30 minutes at room temperature. The amount of radiolabeled probe (preparation described below) bound to Tyk2 was then quantified by scintillation counting, and the inhibition by the test compound calculated by comparison to wells either with no inhibitor (0% inhibition) or without Tyk2 (100% inhibition). The IC50 value is defined as the concentration of test compound required to inhibit radiolabeled probe binding by 50%.
Protein Sequence of recombinant Hig-tagged Tyk2 (575-869):
The preparation of radiolabeled probe, (R)—N-(1-(3-(8-methyl-5-(methylamino)-8H-imidazo[4,5-d]thiazolo[5,4-b]pyridin-2-yl)phenyl)ethyl)-2-([^3H]methylsulfonyl)benzamide, was performed as described below.

[3] = system: IFNα stimulated Kit225 T cells with STAT-dependent luciferase reporter; assay: Kit225 T cell assay, IFNα stimulated STAT-dependent luciferase reporter; type: cell-based; settings: 200 U/mL human recombinant IFNα, 5-6 hours, read-out: IFNα Kit225 Reporter, LE (IC50)
Procedure: as §1

T1 sequence (P29597 575-869): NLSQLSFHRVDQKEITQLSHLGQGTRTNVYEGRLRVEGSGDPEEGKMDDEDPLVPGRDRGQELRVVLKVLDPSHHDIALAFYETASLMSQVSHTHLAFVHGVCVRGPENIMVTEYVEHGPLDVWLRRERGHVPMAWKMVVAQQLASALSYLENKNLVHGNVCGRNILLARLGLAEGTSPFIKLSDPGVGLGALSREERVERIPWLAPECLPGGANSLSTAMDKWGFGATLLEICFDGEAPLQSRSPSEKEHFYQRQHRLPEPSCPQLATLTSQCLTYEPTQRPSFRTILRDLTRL

IC50 [1] [nM] | EC50 [2] [nM] | IC50 [3] [nM] | Compound
3400 | 320 | 1600 | CNC(=O)c1cnc(NCC2CC2)nc1Nc1ccccc1S(C)(=O)=O [Example 1]
2650 | 60 | 2790 | CNC(=O)c1cnc(Nc2ccc(F)cc2)nc1Nc1ccccc1C(N)=O [Example 2]
3510 | 840 | 12500 | CNC(=O)c1cnc(Nc2ccc(F)cc2)nc1Nc1ccccc1 [Example 3]
8510 | 530 | 9520 | CNC(=O)c1cnc(Nc2ccccc2)nc1Nc1ccccc1 [Example 4]
4660 | 50 | 3020 | CNC(=O)c1cnc(Nc2cccc(-c3ccccc3)c2)nc1Nc1ccccc1C(N)=O [Example 5]
3540 | 1350 | 12500 | CNC(=O)c1cnc(Nc2ccc(F)cc2)nc1Nc1cccc(C(N)=O)c1 [Example 6]
9680 | 110 | 12500 | CNC(=O)c1cnc(NC2CCC2)nc1Nc1ccccc1C(N)=O [Example 7]
8280 | 120 | 12500 | CNC(=O)c1cnc(NC2CCCC2)nc1Nc1ccccc1C(N)=O [Example 8]
1320 | 70 | 1450 | CNC(=O)c1cnc(Nc2ccc(-c3ccccc3)cc2)nc1Nc1ccccc1C(N)=O [Example 10]
60 | 70 | 590 | CNC(=O)c1cnc(Nc2ccc(F)cc2)nc1Nc1ccccc1S(C)(=O)=O [Example 11]
200 | 30 | 160 | CNC(=O)c1cnc(Nc2ccccc2)nc1Nc1ccccc1S(C)(=O)=O [Example 12]
200 | 20 | 310 | CNC(=O)c1cnc(Nc2ccc(F)c(C)c2)nc1Nc1ccccc1S(C)(=O)=O [Example 13]
280 | 8.47 | 460 | CNC(=O)c1cnc(Nc2ccc(F)c(F)c2)nc1Nc1ccccc1S(C)(=O)=O [Example 14]
